From patent publication US6355799B1, “Substituted benzene compounds, process for their preparation, and herbicidal and defoliant compositions containing them” (ISK Americas Incorporated, priority 1997, dated 2002)

Legend:
Format in all cases: in vivo
[1] = test system: redroot pigweed (Amaranthus retroflexus, AMARE); assay: Pre-emerge test, greenhouse herbicide activity screening; conditions: pre-emerge, rated 14 days after application, 0 = no damage, 100 = complete death
Method in brief: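 Rating: 0–100 visual injury, 14 DAA. Application: acetone, 187 l/ha, 15–1000 g ai/ha, flat-fan track sprayer with nozzle 40–45 cm above soil or canopy. Post-emerge runs used 0.25% v/v surfactant on 2–3 leaf plants.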

[2] = test system: velvetleaf (Abutilon theophrasti, ABUTH); assay: Post-emerge test, greenhouse herbicide activity screening; conditions: phytotoxicity rating 0-100 (0 no damage, 100 complete death), 14 days after application
Method in brief: (§1)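 Fourteen days after spraying, crop and weed injury was graded visually from 0, no effect, to 100, every plant dead. Test substances were dissolved in acetone and applied at 15–1000 g ai/ha with a flat-fan nozzle. Application was either pre-emergence, one day after sowing, or post-emergence at the 2–3 leaf stage.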

[3] = test system: redroot pigweed (Amaranthus retroflexus, AMARE); assay: as above; conditions: phytotoxicity rating 0-100 (0 no damage, 100 complete death), 14 days after application
Method in brief: as §1

[4] = test system: large crabgrass (Digitaria sanguinalis, DIGSA); assay: as above; conditions: phytotoxicity rating 0-100 (0 no damage, 100 complete death), 14 days after application
Method in brief: as §1

[5] = test system: lambsquarters (Chenopodium album, CHEAL); assay: as above; conditions: phytotoxicity rating 0-100 (0 no damage, 100 complete death), 14 days after application
Method in brief: as §1

[6] = test system: barnyardgrass (Echinochloa crus-galli, ECHCG); assay: as above; conditions: phytotoxicity rating 0-100 (0 no damage, 100 complete death), 14 days after application
Method in brief: as §1

[7] = test system: ivyleaf morningglory (Ipomoea hederacea, IPOHE); assay: as above; conditions: phytotoxicity rating 0-100 (0 no damage, 100 complete death), 14 days after application
Method in brief: as §1

[8] = test system: common ragweed (Ambrosia artemisizfolia L., AMBEL); assay: as above; conditions: phytotoxicity rating 0-100 (0 no damage, 100 complete death), 14 days after application
Method in brief: as §1

[9] = test system: sicklepod (Cassia obtusifolia, CASOB); assay: as above; conditions: phytotoxicity rating 0-100 (0 no damage, 100 complete death), 14 days after application
Method in brief: as §1

[10] = test system: green foxtail (Setaria viridis, SETVI); assay: as above; conditions: phytotoxicity rating 0-100 (0 no damage, 100 complete death), 14 days after application
Method in brief: as §1

[11] = test system: johnsongrass (Sorghum halepense, SORHA); assay: as above; conditions: phytotoxicity rating 0-100 (0 no damage, 100 complete death), 14 days after application
Method in brief: as §1

[12] = test system: upland rice (Oryza sp., var. Tebonnet, RICE); assay: Pre-emerge test, crop safety; conditions: pre-emerge, rated 14 days after application, 0 = no damage, 100 = complete death
Method in brief: (§2)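 Compounds in acetone were track-sprayed at 15-1000 g ai/ha (187 l/ha) on sandy loam pots: pre-emerge one day after seeding, post-emerge at 2-3 leaf stage with 0.25% v/v non-ionic surfactant. Phytotoxicity was rated 14 days later on a 0 (no damage) to 100 (complete death) scale.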

[13] = test system: field corn (Zea mays L., var. Dekalb 535, CORN); assay: Pre-emerge test, crop safety; conditions: pre-emerge, rated 14 days after application, 0 = no damage, 100 = complete death
Method in brief: as §2

[14] = test system: velvetleaf (Abutilon theophrasti, ABUTH); assay: Pre-emerge test, greenhouse herbicide activity screening; conditions: pre-emerge, rated 14 days after application, 0 = no damage, 100 = complete death
Method in brief: (§3)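 Plants grown in 10 cm pots of sandy loam mix received acetone-dissolved compounds through a moving flat-fan nozzle. Doses ranged from 15 to 1000 g ai/ha. Pre-emerge pots were seeded one day earlier, post-emerge pots 8–21 days earlier. Fourteen days on, each pot was graded 0–100 for damage.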

[15] = test system: large crabgrass (Digitaria sanguinalis, DIGSA); assay: as above; conditions: pre-emerge, rated 14 days after application, 0 = no damage, 100 = complete death
Method in brief: as §3

[16] = test system: lambsquarters (Chenopodium album, CHEAL); assay: as above; conditions: pre-emerge, rated 14 days after application, 0 = no damage, 100 = complete death
Method in brief: as §3

[17] = test system: barnyardgrass (Echinochloa crus-galli, ECHCG); assay: as above; conditions: pre-emerge, rated 14 days after application, 0 = no damage, 100 = complete death
Method in brief: as §3

[18] = test system: ivyleaf morningglory (Ipomoea hederacea, IPOHE); assay: as above; conditions: pre-emerge, rated 14 days after application, 0 = no damage, 100 = complete death
Method in brief: as §3

[19] = test system: sicklepod (Cassia obtusifolia, CASOB); assay: as above; conditions: pre-emerge, rated 14 days after application, 0 = no damage, 100 = complete death
Method in brief: as §3

[20] = test system: green foxtail (Setaria viridis, SETVI); assay: as above; conditions: pre-emerge, rated 14 days after application, 0 = no damage, 100 = complete death
Method in brief: as §3

[21] = test system: johnsongrass (Sorghum halepense, SORHA); assay: as above; conditions: pre-emerge, rated 14 days after application, 0 = no damage, 100 = complete death
Method in brief: as §3

[22] = test system: upland rice (Oryza sp., var. Tebonnet, RICE); assay: Post-emerge test, crop safety; conditions: phytotoxicity rating 0-100 (0 no damage, 100 complete death), 14 days after application
Method in brief: (§4)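 Each test used a mechanized track sprayer delivering 187 l/ha of acetone solution at 15–1000 g ai/ha. Post-emerge foliage at 2–3 leaves was treated with added 0.25% v/v non-ionic surfactant and bottom-watered only. Injury was assessed on day 14, where 100 means total kill.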

[23] = test system: field corn (Zea mays L., var. Dekalb 535, CORN); assay: Post-emerge test, crop safety; conditions: phytotoxicity rating 0-100 (0 no damage, 100 complete death), 14 days after application
Method in brief: as §4

Compound: COc1c(Cl)cc(F)c(-n2c(=O)cc(C(F)(F)F)n(C)c2=O)c1N=C(Cl)C(Cl)(Cl)Cl [Compound 1-30]
- Pre-emerge Herbicidal Activity AMARE (phytotoxicity rating, scale 0-100) ([1]; 63 g ai/ha): 0
- Pre-emerge Herbicidal Activity AMARE (phytotoxicity rating, scale 0-100) ([1]; 250 g ai/ha): 60
- Post-emerge Herbicidal Activity ABUTH ([2]; 63 g ai/ha): 30
- Post-emerge Herbicidal Activity ABUTH ([2]; 250 g ai/ha): 100
- Post-emerge Herbicidal Activity AMARE ([3]; 63 g ai/ha): 10
- Post-emerge Herbicidal Activity AMARE ([3]; 250 g ai/ha): 30
- Post-emerge Herbicidal Activity DIGSA ([4]; 63 g ai/ha): 0
- Post-emerge Herbicidal Activity DIGSA ([4]; 250 g ai/ha): 0
- Post-emerge Herbicidal Activity CHEAL ([5]; 63 g ai/ha): 0
- Post-emerge Herbicidal Activity CHEAL ([5]; 250 g ai/ha): 60
- Post-emerge Herbicidal Activity ECHCG ([6]; 63 g ai/ha): 0
- Post-emerge Herbicidal Activity ECHCG ([6]; 250 g ai/ha): 0
- Post-emerge Herbicidal Activity IPOHE ([7]; 63 g ai/ha): 20
- Post-emerge Herbicidal Activity IPOHE ([7]; 250 g ai/ha): 100
- Post-emerge Herbicidal Activity AMBEL ([8]; 63 g ai/ha): 0
- Post-emerge Herbicidal Activity AMBEL ([8]; 250 g ai/ha): 70
- Post-emerge Herbicidal Activity CASOB ([9]; 63 g ai/ha): 0
- Post-emerge Herbicidal Activity CASOB ([9]; 250 g ai/ha): 30
- Post-emerge Herbicidal Activity SETVI ([10]; 63 g ai/ha): 0
- Post-emerge Herbicidal Activity SETVI ([10]; 250 g ai/ha): 0
- Post-emerge Herbicidal Activity SORHA ([11]; 63 g ai/ha): 0
- Post-emerge Herbicidal Activity SORHA ([11]; 250 g ai/ha): 0
- Pre-emerge crop damage RICE (phytotoxicity rating, scale 0-100) ([12]; 63 g ai/ha): 10
- Pre-emerge crop damage RICE (phytotoxicity rating, scale 0-100) ([12]; 250 g ai/ha): 30
- Pre-emerge crop damage CORN (phytotoxicity rating, scale 0-100) ([13]; 63 g ai/ha): 0
- Pre-emerge crop damage CORN (phytotoxicity rating, scale 0-100) ([13]; 250 g ai/ha): 10
- Pre-emerge Herbicidal Activity ABUTH (phytotoxicity rating, scale 0-100) ([14]; 63 g ai/ha): 50
- Pre-emerge Herbicidal Activity ABUTH (phytotoxicity rating, scale 0-100) ([14]; 250 g ai/ha): 100
- Pre-emerge Herbicidal Activity DIGSA (phytotoxicity rating, scale 0-100) ([15]; 63 g ai/ha): 0
- Pre-emerge Herbicidal Activity DIGSA (phytotoxicity rating, scale 0-100) ([15]; 250 g ai/ha): 90
- Pre-emerge Herbicidal Activity CHEAL (phytotoxicity rating, scale 0-100) ([16]; 63 g ai/ha): 85
- Pre-emerge Herbicidal Activity CHEAL (phytotoxicity rating, scale 0-100) ([16]; 250 g ai/ha): 100
- Pre-emerge Herbicidal Activity ECHCG (phytotoxicity rating, scale 0-100) ([17]; 63 g ai/ha): 0
- Pre-emerge Herbicidal Activity ECHCG (phytotoxicity rating, scale 0-100) ([17]; 250 g ai/ha): 0
- Pre-emerge Herbicidal Activity IPOHE (phytotoxicity rating, scale 0-100) ([18]; 63 g ai/ha): 0
- Pre-emerge Herbicidal Activity IPOHE (phytotoxicity rating, scale 0-100) ([18]; 250 g ai/ha): 70
- Pre-emerge Herbicidal Activity CASOB (phytotoxicity rating, scale 0-100) ([19]; 63 g ai/ha): 0
- Pre-emerge Herbicidal Activity CASOB (phytotoxicity rating, scale 0-100) ([19]; 250 g ai/ha): 70
- Pre-emerge Herbicidal Activity SETVI (phytotoxicity rating, scale 0-100) ([20]; 63 g ai/ha): 10
- Pre-emerge Herbicidal Activity SETVI (phytotoxicity rating, scale 0-100) ([20]; 250 g ai/ha): 100
- Pre-emerge Herbicidal Activity SORHA (phytotoxicity rating, scale 0-100) ([21]; 63 g ai/ha): 0
- Pre-emerge Herbicidal Activity SORHA (phytotoxicity rating, scale 0-100) ([21]; 250 g ai/ha): 10
- Post-emerge Herbicidal Activity RICE (crop damage) ([22]; 63 g ai/ha): 0
- Post-emerge Herbicidal Activity RICE (crop damage) ([22]; 250 g ai/ha): 20
- Post-emerge Herbicidal Activity CORN (crop damage) ([23]; 63 g ai/ha): 0
- Post-emerge Herbicidal Activity CORN (crop damage) ([23]; 250 g ai/ha): 10
